According to US11958880B2, “Means and methods for site-specific functionalization of polypeptides” (LUDWIG-MAXIMILIANS-UNIVERSITÄT MÜNCHEN, priority 2014, dated 2024):

What was measured:
Format in all cases: biochemical
[1] = target: T1, tubulin tyrosine ligase (TTL) (Canis lupus familiaris, UniProt A0A8I3N5B1); assay: TTL reaction on GBP4 followed by tryptic digest and HPLC-MS/MS; settings: 1 mM tyrosine derivative, 1 μM TTL, 5 μM nanobody, 37° C., 24 h
T1 construct: His-Tag (N); SUMO3 (Sumo) (N); made in house; host or cells: E. coli BL21(DE3)
T1 sequence (A0A8I3N5B1 1-377): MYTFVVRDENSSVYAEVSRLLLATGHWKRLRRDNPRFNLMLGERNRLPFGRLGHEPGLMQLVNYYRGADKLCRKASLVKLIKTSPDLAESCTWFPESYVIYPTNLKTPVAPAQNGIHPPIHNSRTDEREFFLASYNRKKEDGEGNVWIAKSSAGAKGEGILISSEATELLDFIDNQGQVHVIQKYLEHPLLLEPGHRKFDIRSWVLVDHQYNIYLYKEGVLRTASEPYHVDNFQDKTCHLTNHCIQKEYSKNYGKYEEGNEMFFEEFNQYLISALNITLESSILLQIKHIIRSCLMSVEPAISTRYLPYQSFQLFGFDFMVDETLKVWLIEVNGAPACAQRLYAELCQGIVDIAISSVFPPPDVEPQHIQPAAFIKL
Procedure: Nanobodies were tyrosinated as described in Example 8. Proteins were separated by SDS-PAGE. Protein bands of interest were excised, soaked with 100 μL 50 mM (NH4)2CO3/ACN 1:1 and incubated at 30° C. for 10 min. The supernatant was removed and the gel pieces were incubated in 50 mM (NH4)2CO3 at 30° C. for further 10 min. The two incubation steps were repeated until the pieces were colorless. Hereafter, the gel pieces were dehydrated by the addition of 25 μL ACN, the supernatant removed and the gels were dried under reduced pressure. In-gel digest was performed in a total volume of 20 μL 50 mM (NH4)2CO3 at 37° C. for 12 h using 0.05 μg Trypsin. 20 μL ACN+0.5% TFA were added, the mixture was incubated in an ultrasonic bath, the supernatant transferred to LC glass vials, the solvent was removed under reduced pressure and the residual peptides resuspended in 6 μL 95% H2O+0.1% TFA, 5% ACN+0.1% TFA solution. Peptides were separated by HPLC and analysed by MSMS experiments.
Tyrosination reactions were performed in a 50 μL solution consisting of 20 mM MES/K pH 7.0, 100 mM KCl, 10 mM MgCl2, 2.5 mM ATP, 1 mM tyrosine derivative, 1 μM TTL, 5 μM nanobody and 5 mM reduced glutathione in case of compound 3 and 5 mM DTT in case of compound 1, 2, 9 and tyrosine (6), respectively. The mixture was incubated at 37° C. for 24 h. Proteins were separated by SDS-PAGE. Protein bands of interest were excised, soaked with 100 μL 50 mM (NH4)2CO3/ACN 1:1 and incubated at 30° C. for 10 min. The supernatant was removed and the gel pieces were incubated in 50 mM (NH4)2CO3 at 30° C. for further 10 min. The two incubation steps were repeated until the pieces were colourless. Hereafter, the gel pieces were dehydrated by the addition of 25 μL ACN, the supernatant removed and the gels were dried under reduced pressure. In-gel digest was performed in a total volume of 20 μL 50 mM (NH4)2CO3 at 37° C. for 12 h using 0.05 μg trypsin (Thermo Fisher Scientific, USA). 20 μL ACN+0.5% TFA was added, the mixture incubated in an ultrasonic bath, the supernatant transferred to LC glass vials, the solvent removed under reduced pressure and the residual peptides resuspended in 6 μL 95% H2O+0.1% TFA, 5% ACN+0.1% TFA solution. Peptides were separated by HPLC and analyzed by MSMS experiments.

[2] = target: T1, tubulin tyrosine ligase (TTL); assay: TTL tyrosination of carboxyfluorescein-labeled Tub-tag peptide (CF-Tub-tag), isocratic HPLC-fluorescence; settings: TTL:peptide 1:200, after 120 min of incubation at 37° C.
Procedure: Tyrosination reactions were performed in a 250 μL solution consisting of 20 mM MES/K pH 7.0, 100 mM KCl, 10 mM MgCl2, 2.5 mM ATP, 1 mM tyrosine derivative, 0.2 mM peptide, 1 μM TTL and 5 mM DTT in case of compound 1, 2, 4 and 5 or 5 mM reduced glutathione in case of compound 3, respectively. The mixture was incubated at 37° C. and several aliquots (25 μL) were taken within 24 h, mixed with equal volumes of H2O+0.1% TFA and subjected either to isocratic analytical HPLC equipped with a fluorescence detector (Method A) or analytical UPLC-MS analysis. Quantities of substrate and product peptides were estimated from the corresponding peak-area in the fluorescence or UV detection spectrum (Ex/Em: 495/517).
Tyrosination reactions were performed in a 250 μL solution consisting of 20 mM MES/K pH 7.0, 100 mM KCl, 10 mM MgCl2, 2.5 mM ATP, 1 mM tyrosine derivative, 0.2 mM CF-Tub-tag 13, 1 μM TTL and 5 mM DTT in case of compound 2 or 5 mM reduced glutathione in case of compound 1, respectively. The mixture was incubated at 37° C. and several aliquots (25 μL) were taken, mixed with equal volumes of H2O+0.1% TFA and subjected to isocratic analytical HPLC equipped with a fluorescence detector (Method: A=H2O+0.1% TFA, B=MeCN+0.1% TFA; 35% B, 0-15 min, 10-100% B 15-17 min, 100% B 17-22 min, 100-35% B 22-25 min and 35% B 25-30 min.). […]

[3] = target: T1, tubulin tyrosine ligase (TTL); assay: TTL-mediated incorporation of tyrosine derivative to the C-terminus of GBP4 followed by SPAAC to DBCO-biotin (SDS-PAGE/western blot); settings: for GBP4 converted (C-terminally modified GBP4): one hour; for GBP4 conversion: three hours
Procedure: Tyrosination reactions were performed in a 150 μL solution consisting of 20 mM MES/K pH 7.0, 100 mM KCl, 10 mM MgCl2, 2.5 mM ATP, 1 mM tyrosine derivative, 0.1-1 μM TTL, 5 μM nanobody and 5 mM reduced glutathione in case of compounds containing azides or 5 mM DTT for all other derivatives, respectively. The mixture was incubated at 37° C. for 1-3 h.
Tyrosination reactions were performed as described in Example 16 using compound 3, 5 mM reduced glutathione and a ratio of 10:1 GBP4/TTL for 3 h. The reaction mixtures were rebuffered to Dulbecco's PBS pH 7.4 and incubated with 30 eq. of Sulfo-Cy5-DBCO (Jena Bioscience GmbH, Germany) or DBCO-PEG4-biotin (Jena Bioscience GmbH, Germany) at 30° C. for 4 h. Proteins were separated by SDS-PAGE. Biotinylated nanobodies were wet blotted onto a nitrocellulose membrane using a Bio-Rad Mini-Protean Tetra System (250 mA, one hour). A streptavidin peroxidase conjugate (Merck Millipore, Germany) was used for detection. Fluorescently labeled nanobodies were visualized by a Fuji FLA-5000 laser imager (634 nm excitation, LPG-filter) (Fujifilm, Japan).

| Structure (SMILES) | C-terminal addition to GBP4 shown by HPLC-MS/MS [1] | conjugate yield [2] | GBP4 converted (C-terminally modified GBP4) ([3]; ratio 1:5 TTL/GBP4, 37° C.) | GBP4 conversion ([3]; ratio 1:5 TTL/GBP4, 37° C.) | GBP4 converted (C-terminally modified GBP4) ([3]; ratio 1:10 TTL/GBP4, 37° C.) | GBP4 conversion ([3]; ratio 1:10 TTL/GBP4, 37° C.) |
| --- | --- | --- | --- | --- | --- | --- |
| Nc1cc(C[C@H](N)C(=O)O)ccc1O [compound 9, 3-amino-L-tyrosine] | successful C-terminal addition | – | – | – | – | – |
| N[C@@H](Cc1ccc(O)c([N+](=O)[O-])c1)C(=O)O [compound 2, 3-nitro-L-tyrosine] | successful C-terminal addition | – | – | – | – | – |
| [N-]=[N+]=Nc1cc(C[C@H](N)C(=O)O)ccc1O [compound 3, 3-azido-L-tyrosine] | successful C-terminal addition | 80% | 82% | 99% | 71% | 88% |

Further lines, results first:

| C-terminal addition to GBP4 shown by HPLC-MS/MS [1] | conjugate yield [2] | GBP4 converted (C-terminally modified GBP4) ([3]; ratio 1:5 TTL/GBP4, 37° C.) | GBP4 conversion ([3]; ratio 1:5 TTL/GBP4, 37° C.) | GBP4 converted (C-terminally modified GBP4) ([3]; ratio 1:10 TTL/GBP4, 37° C.) | GBP4 conversion ([3]; ratio 1:10 TTL/GBP4, 37° C.) | Structure (SMILES) |
| --- | --- | --- | --- | --- | --- | --- |
| successful C-terminal addition | – | – | – | – | – | N[C@@H](Cc1ccc(O)cc1)C(=O)O [compound 6, L-tyrosine, reference compound] |
| successful C-terminal addition | 63% | – | – | – | – | N[C@@H](Cc1ccc(O)c(C=O)c1)C(=O)O [compound 1, 3-formyl-L-tyrosine] |
